# Source: US12319929B2, “Compositions and methods for the treatment of Parkinson's disease” (VOYAGER THERAPEUTICS, INC., priority 2018, dated 2025)
# System: patients with motor response fluctuations
# Assay: UPDRS III AUC response to threshold and suprathreshold IV levodopa infusion
# Format: in vivo, human
# Conditions: Baseline before AAV2-hAADC
# Description: On sequential days, patients received either a threshold (0.6 mg/mL; low-dose) or suprathreshold (1.2 mg/mL; high-dose) infusion of IV levodopa dosed at 1 mL/kg/hr for 2 hours. The order and threshold of IV levodopa dosing was randomized and double-blinded (LHLH, LHHL, HLHL, HLLH).
# Oral carbidopa (25 mg) was administered 1-2 hours before, during, and 1-2 hours after the infusion. Participants' motor response was measured by UPDRS III (time to 30% change and duration of 30% responses); bradykinesia was measured by finger tapping rate; and dyskinesia was measured by Abnormal Involuntary Movement Scale (AIMS) scoring. Pharmacokinetics were assessed every 30 minutes after administration of IV levodopa.
# Results for Group 1 are shown in FIG. 12a: results for Group 2 are shown in FIG. 12b; and results for Group 3 are shown in FIG. 12c.
smiles,measurement,setting,value
"N[C@@H](Cc1ccc(O)c(O)c1)C(=O)O [IV Levodopa, L-3,4-dihydroxyphenylalanine]","UPDRS III AUC, mean (standard error)","Suprathreshold (1.2 mg/kg/hr) IV Levodopa, Group 1 (N = 5)",−72.8 (13.1)
same,"UPDRS III AUC, mean (standard error)","Suprathreshold (1.2 mg/kg/hr) IV Levodopa, Group 2 (N = 5)",−45.0 (13.5)
same,"UPDRS III AUC, mean (standard error)","Suprathreshold (1.2 mg/kg/hr) IV Levodopa, Group 3 (N=3)",−41.1 (13.8)
same,"UPDRS III AUC, mean (standard error)","Threshold (0.6 mg/kg/hr) IV Levodopa, Group 1 (N = 5)",−22.1 (9.7)
same,"UPDRS III AUC, mean (standard error)","Threshold (0.6 mg/kg/hr) IV Levodopa, Group 2 (N = 5)",−21.8 (5.9)
same,"UPDRS III AUC, mean (standard error)","Threshold (0.6 mg/kg/hr) IV Levodopa, Group 3 (N=3)",−16.1 (11.4)
